The values that follow come from ChEMBL document CHEMBL3352231, “Conformational analysis of an anti-androgenic, (E,E)-8-hydroxygermacrene B, using NOESY and dynamic NMR spectroscopy” (Bioorg Med Chem Lett, 2014).

In this experiment the target is T1, 3-oxo-5-alpha-steroid 4-dehydrogenase 1 (Rattus norvegicus, UniProt P24008).
T1 sequence (P24008 whole entry): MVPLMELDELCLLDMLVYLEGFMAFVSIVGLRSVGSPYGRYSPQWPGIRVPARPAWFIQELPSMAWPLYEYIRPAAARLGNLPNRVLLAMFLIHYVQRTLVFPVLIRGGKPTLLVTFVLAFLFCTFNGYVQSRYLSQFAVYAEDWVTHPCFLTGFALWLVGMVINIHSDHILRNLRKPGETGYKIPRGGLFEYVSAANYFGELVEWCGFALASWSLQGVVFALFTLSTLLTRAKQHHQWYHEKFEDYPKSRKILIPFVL
Description: Inhibition of Sprague-Dawley rat liver steroid 5-alpha-reductase assessed as inhibition of testosterone conversion to dihydrotestosterone incubated for 30 mins by HPLC method.

Each structure is given as a SMILES string.

Usually IC50 stands for the concentration needed to halve the response being measured. `CC(C)=C1C/C=C(/C)CC/C=C(/C)CC1=O`: the IC50 is 1940 µM. For `C#C[C@]1(O)CC[C@H]2[C@@H]3CCc4cc(O)ccc4[C@H]3CC[C@@]21C` [ETHINYL ESTRADIOL] the value was 960 µM.
